“Also recorded” adds a separate entry of the source.
Key:
[1] = Cytotoxicity by estimating the incorporation of leucine; assay type: cell-based
Experimental: (§1) The following were determined for each test compound:
the cytotoxicity, by estimating the incorporation of leucine, […]

[2] = system: melanocytes in co-culture; test: Activity on the dendricity of melanocytes (melanocyte/keratinocyte co-culture, NKlbeteb labelling); assay type: cell-based; conditions: 7 days treatment, 100 μg per ml; test concentration: T1 312 μM, T2 327 μM, A 230 μM, B 262 μM
Experimental: The aim of this test is to show the effect of the compounds used according to the invention on the morphological modulation of melanocytes.
The melanocytes are treated immediately on inoculation with the compounds according to the invention for 7 days. The compounds are used at a dose of 100 μg per ml.
The melanocytes are labelled using the antibody NKlbeteb (green coloration), which recognizes melanosomes at any stage of maturation. The nucleus of all the cells, melanocytes and keratinocytes, is stained using propidium iodide (red coloration).
In the absence of the compounds according to the invention, the melanocytes in co-culture are highly dendritic. The pigment is visibly transferred to the neighbouring keratinocytes.

melanogenesis = test: Activity on melanogenesis (ratio of thiouracil to leucine incorporation); assay type: cell-based; conditions: for IC50: read-out: IC50 (concentration for which a 50% inhibition of melanogenesis is observed); for Inhibitory activity on melanogenesis: relative to 100% of control, test concentration: T1 312 μM, T2 327 μM, A 230 μM, B 262 μM
Experimental: The melanogenesis-modulating effect of the compounds of formula (I) was measured according to the method described in patent application EP-0 993 826 filed by the Applicant, and also in the article by R. Schmidt, P. Krien and M. Regnier, Anal. Biochem., 235(2), 113-18, (1996).
as §1
the inhibitory activity on melanin synthesis, by estimating the ratio of the incorporation of thiouracil to the incorporation of leucine, relative to 100% of the control (the control corresponds to the test performed without test compound),
the IC50 value, which corresponds to the micromolar (μM) concentration for which a 50% inhibition of melanogenesis is observed.

tyrosinase = target: T1, tyrosinase (Homo sapiens, UniProt P14679); conditions: J. Soc. Cosmet. Chem., 42, 1991; cited from earlier work
T1 sequence (P14679 19-529): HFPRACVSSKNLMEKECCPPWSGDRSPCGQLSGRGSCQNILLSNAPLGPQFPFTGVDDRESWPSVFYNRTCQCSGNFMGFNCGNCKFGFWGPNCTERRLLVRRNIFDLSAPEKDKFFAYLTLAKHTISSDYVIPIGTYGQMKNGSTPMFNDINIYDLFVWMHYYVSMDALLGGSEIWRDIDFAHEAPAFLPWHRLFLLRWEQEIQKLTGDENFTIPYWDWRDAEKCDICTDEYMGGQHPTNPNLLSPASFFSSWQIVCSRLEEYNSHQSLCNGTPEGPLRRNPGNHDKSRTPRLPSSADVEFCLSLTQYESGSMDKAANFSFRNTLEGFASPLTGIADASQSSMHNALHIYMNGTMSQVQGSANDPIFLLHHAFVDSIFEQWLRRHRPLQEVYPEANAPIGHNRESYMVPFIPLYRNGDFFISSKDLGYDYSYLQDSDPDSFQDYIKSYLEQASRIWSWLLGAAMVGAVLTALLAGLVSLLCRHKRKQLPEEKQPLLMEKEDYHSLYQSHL

melanocytes = conditions: Pigment. Cell. Res., 13, 2000; cited from earlier work

Compound	Cytotoxicity [1]	Dendricity [2]	Transfer of pigmentation [2]	IC50 (melanogenesis)	IC50 (concentration for which a 50% inhibition of melanogenesis is observed) (melanogenesis)	Inhibitory activity on melanogenesis (melanogenesis)	Effect on tyrosinase (tyrosinase)	Dendricity of the melanocytes (melanocytes)	Melanin transfer (melanocytes)
COc1cc(/C=C/C(=O)OC2=C(O)C(C3COC(C)(C)O3)OC2=O)ccc1OC(C)=O (centres unmarked) [Compound A, 5-(2,2-dimethyl[1,3]dioxolan-4-yl)-4-hydroxy-2-oxo-2,5-dihydro-3-furanyl 3-[(4-acetoxy-3-methoxy)phenyl]acrylate]	No	Bipolar	reduced; also recorded: Little	200 µM					
COc1cc(/C=C/C(=O)OC2=C(O)C(C3COC(C)(C)O3)OC2=O)ccc1O (centres unmarked) [Compound B, 5-(2,2-dimethyl[1,3]dioxolan-4-yl)-4-hydroxy-2-oxo-2,5-dihydro-3-furanyl 3-[(4-hydroxy-3-methoxy)phenyl]acrylate]	No	Bipolar	reduced; also recorded: Little	500 µM					
O=C(/C=C/c1ccccc1)OC1=C(O)[C@@H]([C@@H](O)CO)OC1=O [Compound T2, ascorbyl 2-cinnamate]	No	Multipolar	Large		No effect	No effect			
O=C1O[C@H]([C@@H](O)CO)C(O)=C1O [ascorbic acid]							inhibitory effect		
O=C1O[C@H]([C@@H](O)CO)C([O-])=C1OP(=O)([O-])[O-].O=C1O[C@H]([C@@H](O)CO)C([O-])=C1OP(=O)([O-])[O-].[Mg+2].[Mg+2].[Mg+2] [magnesium ascorbyl phosphate]								reduce the dendricity	effect on melanin transfer
methyl 2,3-bis-acetate of ascorbic acid [Compound T1]		Multipolar	Large		No effect	No effect			

Source: US20040161391A1, “Ascorbic acid compounds as bleaching agents” (L'OREAL, priority 2002, published 2004)
